Experimental data taken from patent publication US20260124278A1, “COMPOSITIONS AND METHODS FOR TREATMENT OF NEUROLOGICAL DISORDERS” (D&D Pharmatech Inc., priority 2022, published 2026).

How the values were obtained:
trypsin = experiment: in vitro stability against trypsin; format: in vitro ADME; details: 0 min
FaSSIF/pancreatin = experiment: in vitro stability against FaSSIF/pancreatin; format: in vitro ADME; details: 0 min
[1] = in vivo; cited from earlier work
primary microglia = experiment: α-syn PFF induced microglial activation, cytokine mRNA by qPCR; format: cell-based, mouse; details: agonist 2 μM, 150 nM PFF for 4 h
Protocol: Mouse microglia isolated from postnatal day 2 CD1 mouse brain were obtained from ScienCell Research Laboratories (M1900, Carlsbad, CA). […] Pre-condition: 24 hrs non-serum condition.
Total RNA from cultured cells was extracted with a RNA isolation kit (Qiagen, Valencia, CA, USA) following the instructions provided by the company. RNA concentration was measured spectrophotometrically using a NanoDrop 2000 (Biotek, Winooski, VT, USA). Subsequently, 1-2 μg of total RNA was reverse transcribed to cDNA using the High-Capacity cDNA Reverse Transcription System (Life Technologies, Grand Island, NY, USA). Comparative qPCR was performed in duplicate or triplicate for each sample using fast SYBR Green Master Mix (Life Technologies) and ViiA 7 Real-Time PCR System (Applied Biosystems, Foster City, CA, USA). The expression levels of target genes were normalized to the expression of Actb and calculated based on the comparative cycle threshold Ct method (2^−ΔΔCt).

For `CC[C@H](C)[C@H](NC(=O)[C@H](Cc1ccccc1)NC(=O)[C@H](CCC(=O)O)NC(=O)[C@H](CCCCNC(=O)COCCOCCNC(=O)COCCOCCNC(=O)CC[C@H](NC(=O)CCCCCCCCCCCCCCCCC(=O)O)C(=O)O)NC(=O)[C@H](C)NC(=O)[C@H](C)NC(=O)[C@H](CCC(N)=O)NC(=O)CNC(=O)[C@H](CCC(=O)O)NC(=O)[C@H](CC(C)C)NC(=O)[C@H](Cc1ccc(O)cc1)NC(=O)[C@H](CO)NC(=O)[C@H](CO)NC(=O)[C@@H](NC(=O)[C@H](CC(=O)O)NC(=O)[C@H](CO)NC(=O)[C@@H](NC(=O)[C@H](Cc1ccccc1)NC(=O)[C@@H](NC(=O)CNC(=O)[C@H](CCC(=O)O)NC(=O)C(C)(C)NC(=O)[C@@H](N)Cc1cnc[nH]1)[C@@H](C)O)[C@@H](C)O)C(C)C)C(=O)N[C@@H](C)C(=O)N[C@@H](Cc1c[nH]c2ccccc12)C(=O)N[C@@H](CC(C)C)C(=O)N[C@H](C(=O)N[C@@H](CCCNC(=N)N)C(=O)NCC(=O)N[C@@H](CCCNC(=N)N)C(=O)NCC(=O)O)C(C)C` [Semaglutide], the “Remaining amount (%) after trypsin treatment” value (trypsin) was 100.0% and the “Remaining amount (%) after FaSSIF/Pancreatin treatment” value (FaSSIF/pancreatin) was 100.0%.

For “NLY01: long-acting PEGylated form of exenatide”, the half-life [1] is listed as 88 h and the “α-syn PFF induced mRNA expression of TNF-α, IL-1α, IL-1β, C1q and IL-6” value (primary microglia) is listed as “significantly reduces”.
